The text below walks through data of patent US20220249415A1, “COMPOSITION OF AZELAIC ACID HAVING ADIPOSE TRIGLYCERIDE HYDROLYSIS EFFECT” (Korea University Research and Business Foundation, priority 2018, published 2022).

One assay deals with hAMSC cells. The experiment in a line: qPCR of anti-obesity gene in hAMSC cells, with OR2K2 knock-down. Format: cell-based, human. The method, then: In-vitro equivalence confirmation: HepG2 cells, which are a human liver tissue cell line, and hAMSC cells, which are a human adipocyte line, were treated with azelaic acid and the anti-obesity gene was measured through a qPCR method.
Background: In qPCR the cycle at which signal appears reflects the starting amount.

Another assay relates to 3T3-L1 adipocytes. In words: Glycerol release (triglyceride hydrolysis) from 3T3-L1 adipocytes. Format: cell-based, mouse. The conditions noted are these: 50 μM azelaic acid, 2 hours. The method, then:
Further, in order to confirm whether or not azelaic acid has an effect of hydrolyzing triglycerides, a release amount of glycerol corresponding to a product of triglyceride hydrolysis was measured.

For assay [1], the target named is T1, OR2K2 (Homo sapiens, UniProt Q8NGT1, E159A).
T1 construct: expressed in transfected cells; host or cells: Hana3A
T1 sequence (Q8NGT1 1-316 E159A): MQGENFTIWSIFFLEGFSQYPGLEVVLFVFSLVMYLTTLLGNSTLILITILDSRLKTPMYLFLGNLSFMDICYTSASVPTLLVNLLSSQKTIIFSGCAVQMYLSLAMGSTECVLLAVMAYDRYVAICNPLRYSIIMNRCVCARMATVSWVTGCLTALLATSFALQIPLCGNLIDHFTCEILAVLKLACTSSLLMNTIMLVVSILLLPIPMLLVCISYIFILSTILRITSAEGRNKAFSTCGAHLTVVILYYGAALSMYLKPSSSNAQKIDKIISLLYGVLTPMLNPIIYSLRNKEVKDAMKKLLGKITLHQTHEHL
The experiment in a line: Luciferase assay of OR2K2 mutants transfected into Hana3A cells. Conditions: OR2K2 E159A mutant in Hana3A cells. Format: cell-based. The text has this: (§1) In order to confirm the binding site of the olfactory receptor OR2K2 protein that binds to azelaic acid, among amino acids, Y120, which is a tyrosine (Y) residue, E159, which is a glutamate (E) residue, and D270, which is an aspartate (D) residue, were predicted through in-silico modeling, and the corresponding position of the predicted amino acid residue was subjected to site-directed mutagenesis to obtain a mutant. For negative controls, Y120A, E159A, and D270A mutants in which all three amino acid residues were replaced with alanine were used. For positive controls, Y120F, E159D, and D270E mutants, including Y120F replaced with phenylalanine (F) for Y120, E159D replaced with aspartate for E159, and D270E replaced with glutamate for D270, were used.
(§2) The cDNA clone including the sequence of each OR2K2 mutant for measuring the binding affinity of azelaic acid was transfected into Hana3A cells, and a luciferase assay was performed. […] This is deemed to be because azelaic acid binds to OR2K2 by reacting the E159 and D270 moieties of OR2K2 with both carboxyl groups of azelaic acid.

Assay [2] has as its system OR2K2. Described as above. Format: cell-based, human. Conditions: OR2K2 with both D270 and E159 mutated, Hana3A cells.
Excerpt: as §1, §2

For the molecule `O=C(O)CCCCCCCC(=O)O` [azelaic acid, nonanedioic acid], the “expression of a triglyceride hydrolysis gene (qPCR)” value in the assay with hAMSC cells (adipocytes (hAMSC) treated with azelaic acid) is “increased”. For the same molecule, the “effect on gene expression when the OR2K2 gene was knocked down” value with hAMSC cells (human adipocyte line (hAMSC)) was “disappear”. For the same molecule, the “glycerol (product of triglyceride hydrolysis) increased as compared to the control” value in the assay on 3T3-L1 adipocytes stood at 46.7%. Besides, the “activity of azelaic acid (luciferase)” value on OR2K2 [1] is on record as “statistically significantly decreased”. Moreover, the “azelaic acid reaction (luciferase)” value with OR2K2 [2] is listed as “statistically significantly reduced”.
